Measurements: patent US10689354B2, “Aminoazole derivative” (Teijin Pharma Limited, priority 2015, dated 2020)

These compounds were tested against T1, androgen receptor (AR-LBD) (Rattus norvegicus, UniProt P15207) (assay: Evaluation of androgen receptor affinity (PolarScreen Androgen Receptor Competitor Assay Kit, Red; fluorescence polarization)). Settings: 22° C. for 5 hours, relative to binding rate of 1 μM DHT, read-out: AR affinity (pEC50) (converted).
T1 construct: 5 μL of 2×AR-LBD/Fluoromone AL Red Complex contained in the kit; purchased Invitrogen
T1 sequence (P15207 651-882 limits assumed): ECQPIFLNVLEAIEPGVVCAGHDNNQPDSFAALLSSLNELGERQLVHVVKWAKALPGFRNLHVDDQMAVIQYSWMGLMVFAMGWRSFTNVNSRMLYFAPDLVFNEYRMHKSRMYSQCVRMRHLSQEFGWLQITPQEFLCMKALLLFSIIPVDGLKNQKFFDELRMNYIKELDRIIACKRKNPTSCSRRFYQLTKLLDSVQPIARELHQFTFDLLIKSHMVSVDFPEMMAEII
Experimental: Evaluation of an Androgen Receptor Affinity
To examine the interaction of a compound with an androgen receptor, evaluation was carried out in accordance with the following procedure using PolarScreen™ Androgen Receptor Competitor Assay Kit, Red (Invitrogen). To 2 wells each of a 384 well black plate was added 5 μL of the compound solution. To each well was added 5 μL of 2×AR-LBD/Fluoromone AL Red Complex contained in the kit and the samples were reacted at 22° C. for 5 hours. After 5 hours of the reaction, fluorescence polarization was measured and the affinity was evaluated. The affinity of the compound was determined by comparing to the binding rate of 1 μM of dihydrotestosterone (DHT), and quantified the logarithm value (pEC50) of reciprocal value of the effective concentration of the compound which is equal to 50% of the binding rate by applying a 4 parameter goodness-of-fit calculation.

Row | Compound | EC50 [nM]
1 | Cc1sc(N(Cc2ccccc2)c2ccc(O)cc2)nc1C(=O)NS(C)(=O)=O [Example 206, 2-(N-benzyl-4-hydroxy-anilino)-5-methyl-N-methylsulfonyl-thiazole-4-carboxamide] | > 2000
2 | Cc1noc(C)c1CCN(Cc1ccccc1)c1nc(C(=O)NS(C)(=O)=O)c(C)s1 [Compound 691, 2-[benzyl-[2-(3,5-dimethylisoxazol-4-yl)ethyl]amino]-5-methyl-N-methylsulfonyl-thiazole-4-carboxamide] | > 2000
3 | Cc1sc(N(Cc2ccccc2)c2ccc(C#N)cc2)nc1C(=O)NS(=O)(=O)CCN1C(=O)CCC1=O [Compound 383, 2-(N-benzyl-4-cyano-anilino)-N-[2-(2,5-dioxopyrrolidin-1-yl)ethylsulfonyl]-5-methyl-thiazole-4-carboxamide] | > 2000
4 | Cc1sc(N(Cc2ccccc2)c2ccc(C#N)cc2)nc1C(=O)NS(=O)(=O)CCN1CCCCC1 [Compound 430, 2-(N-benzyl-4-cyano-anilino)-5-methyl-N-[2-(1-piperidyl)ethylsulfonyl]thiazole-4-carboxamide] | > 2000
5 | Cc1ccc(CN(c2ccc(C#N)cc2)c2nc(C(=O)NS(C)(=O)=O)c(Br)s2)cc1 [Example 246, 5-bromo-2-[4-cyano-N-(p-tolylmethyl)anilino]-N-methylsulfonyl-thiazole-4-carboxamide] | 39.8
6 | Cc1sc(N(Cc2nc3ccccc3[nH]2)c2ccc(C#N)cc2)nc1C(=O)NS(C)(=O)=O [Compound 460, 2-[N-(1H-benzimidazol-2-ylmethyl)-4-cyano-anilino]-5-methyl-N-methylsulfonyl-thiazole-4-carboxamide] | 1260
7 | Cc1sc(N(CCc2ccc(S(C)(=O)=O)cc2)Cc2ccccc2)nc1C(=O)NS(C)(=O)=O [Example 317, 2-[benzyl-[2-(4-methylsulfonylphenyl)ethyl]amino]-5-methyl-N-methylsulfonyl-thiazole-4-carboxamide] | 501
8 | Cc1sc(N(Cc2ccccc2)c2cccc(-n3cncn3)c2)nc1C(=O)NS(C)(=O)=O [Compound 71, 2-[N-benzyl-3-(1,2,4-triazol-1-yl)anilino]-5-methyl-N-methylsulfonyl-thiazole-4-carboxamide] | > 2000
9 | Cc1sc(N(Cc2ccccc2)c2cccc3cccnc23)nc1C(=O)NS(C)(=O)=O [Compound 53, 2-[benzyl(8-quinolyl)amino]-5-methyl-N-methylsulfonyl-thiazole-4-carboxamide] | > 2000
10 | Cc1sc(N(CCn2ccnc2)c2ccc(C#N)cc2)nc1C(=O)NS(C)(=O)=O [Compound 458, 2-[4-cyano-N-(2-imidazol-1-ylethyl)anilino]-5-methyl-N-methylsulfonyl-thiazole-4-carboxamide] | > 2000
11 | Cc1sc(N(Cc2ccncc2)c2ccc(C#N)cc2)nc1C(=O)NS(C)(=O)=O [Compound 44, 2-[4-cyano-N-(4-pyridylmethyl)anilino]-5-methyl-N-methylsulfonyl-thiazole-4-carboxamide] | > 2000
12 | Cc1sc(N(c2ccc(C#N)cc2F)[C@@H](CO)c2ccccc2)nc1C(=O)NS(C)(=O)=O [Compound 667, 2-(4-cyano-2-fluoro-N-[(1R)-2-hydroxy-1-phenyl-ethyl]anilino)-5-methyl-N-methylsulfonyl-thiazole-4-carboxamide] | > 2000
13 | Cc1sc(N(CCc2ccccn2)c2ccc(C#N)cc2)nc1C(=O)NS(C)(=O)=O [Compound 130, 2-[4-cyano-N-[2-(2-pyridyl)ethyl]anilino]-5-methyl-N-methylsulfonyl-thiazole-4-carboxamide] | > 2000
14 | Cc1sc(N(Cc2ccccc2)c2cccnc2)nc1C(=O)NS(C)(=O)=O [Compound 49, 2-[benzyl(3-pyridyl)amino]-5-methyl-N-methylsulfonyl-thiazole-4-carboxamide] | > 2000
15 | COc1ccc(N(Cc2ccccc2)c2nc(C(=O)NS(C)(=O)=O)c(C)s2)cc1 [Compound 21, 2-(N-benzyl-4-methoxy-anilino)-5-methyl-N-methylsulfonyl-thiazole-4-carboxamide] | 1580
16 | Cc1sc(N(Cc2ccccc2)c2cccc(OCCOCc3ccccc3)c2)nc1C(=O)NS(C)(=O)=O [Example 208, 2-[N-benzyl-3-(2-benzyloxyethoxy)anilino]-5-methyl-N-methylsulfonyl-thiazole-4-carboxamide] | > 2000
17 | Cc1ncsc1CCN(c1ccc(C#N)cc1)c1nc(C(=O)NS(C)(=O)=O)c(C)s1 [Compound 136, 2-[4-cyano-N-[2-(4-methylthiazol-5-yl)ethyl]anilino]-5-methyl-N-methylsulfonyl-thiazole-4-carboxamide] | > 2000

Row | Compound | EC50 [nM]
18 | Cc1sc(N(Cc2ccccc2)c2ccccc2C(F)(F)F)nc1C(=O)NS(C)(=O)=O [Example 228, 2-[N-benzyl-2-(trifluoromethyl)anilino]-5-methyl-N-methylsulfonyl-thiazole-4-carboxamide] | > 2000
19 | Cc1sc(N(CCC2CCNCC2)Cc2ccccc2)nc1C(=O)NS(C)(=O)=O [Compound 705, 2-[benzyl-[2-(4-piperidyl)ethyl]amino]-5-methyl-N-methylsulfonyl-thiazole-4-carboxamide] | > 2000
20 | Cc1ncc(CN(c2ccc(C#N)cc2)c2nc(C(=O)NS(C)(=O)=O)c(C)s2)s1 [Compound 435, 2-[4-cyano-N-[(2-methylthiazol-5-yl)methyl]anilino]-5-methyl-N-methylsulfonyl-thiazole-4-carboxamide] | 631
21 | Cc1sc(N(CCc2ccc(C#N)cc2)CC2CCCCC2)nc1C(=O)NS(=O)(=O)C(F)(F)F [Compound 719, 2-[2-(4-cyanophenyl)ethyl-(cyclohexylmethyl)amino]-5-methyl-N-(trifluoromethylsulfonyl)thiazole-4-carboxamide] | > 2000
22 | Cc1cc(C)n(CCN(Cc2ccccc2)c2nc(C(=O)NS(C)(=O)=O)c(C)s2)n1 [Compound 689, 2-[benzyl-[2-(3,5-dimethylpyrazol-1-yl)ethyl]amino]-5-methyl-N-methylsulfonyl-thiazole-4-carboxamide] | > 2000
23 | Cc1sc(N(CCc2ccc(C#N)cc2)CC2CCCCC2)nc1C(=O)NS(=O)(=O)C1CC1 [Compound 718, 2-[2-(4-cyanophenyl)ethyl-(cyclohexylmethyl)amino]-N-cyclopropylsulfonyl-5-methyl-thiazole-4-carboxamide] | > 2000
24 | Cc1sc(N(CCCc2ccccc2)c2ccc(C#N)cc2)nc1C(=O)NS(C)(=O)=O [Compound 433, 2-[4-cyano-N-(3-phenylpropyl)anilino]-5-methyl-N-methylsulfonyl-thiazole-4-carboxamide] | > 2000
25 | Cc1sc(N(c2ccc(C#N)cc2)[C@@H](CO)c2ccccc2)nc1C(=O)NS(C)(=O)=O [Compound 483, 2-(4-cyano-N-[(1R)-2-hydroxy-1-phenyl-ethyl]anilino)-5-methyl-N-methylsulfonyl-thiazole-4-carboxamide] | > 2000
26 | Cc1sc(N(Cc2ccc(OCCN3CCCC3=O)cc2)c2ccc(C#N)cc2)nc1C(=O)NS(C)(=O)=O [Compound 575, 2-[4-cyano-N-[[4-[2-(2-oxopyrrolidin-1-yl)ethoxy]phenyl]methyl]anilino]-5-methyl-N-methylsulfonyl-thiazole-4-carboxamide] | 398
27 | Cc1sc(N(Cc2ccccc2)c2cnccn2)nc1C(=O)NS(C)(=O)=O [Compound 55, 2-[benzyl(pyrazin-2-yl)amino]-5-methyl-N-methylsulfonyl-thiazole-4-carboxamide] | > 2000
28 | Cc1cccc(CN(c2ccc(C#N)cc2)c2nc(C(=O)NS(C)(=O)=O)c(Br)s2)c1 [Example 245, 5-bromo-2-[4-cyano-N-(m-tolylmethyl)anilino]-N-methylsulfonyl-thiazole-4-carboxamide] | 79.4
29 | Cc1sc(N(Cc2ccccc2)Cc2cccc(C#N)c2)nc1C(=O)NS(C)(=O)=O [Example 290, 2-[benzyl-[(3-cyanophenyl)methyl]amino]-5-methyl-N-methylsulfonyl-thiazole-4-carboxamide] | > 2000
30 | COc1ccccc1CN(c1ccc(C#N)cc1)c1nc(C(=O)NS(C)(=O)=O)c(Br)s1 [Example 249, 5-bromo-2-[4-cyano-N-[(2-methoxyphenyl)methyl]anilino]-N-methylsulfonyl-thiazole-4-carboxamide] | 100
31 | Cc1sc(N(Cc2ccccc2)Cc2ccccn2)nc1C(=O)NS(C)(=O)=O [Example 295, 2-[benzyl(2-pyridylmethyl)amino]-5-methyl-N-methylsulfonyl-thiazole-4-carboxamide] | > 2000
32 | Cc1nc(CCN(Cc2ccccc2)c2nc(C(=O)NS(C)(=O)=O)c(C)s2)cs1 [Compound 706, 2-[benzyl-[2-(2-methylthiazol-4-yl)ethyl]amino]-5-methyl-N-methylsulfonyl-thiazole-4-carboxamide] | > 2000
33 | Cc1sc(N(Cc2ccccc2)c2ccccc2C#N)nc1C(=O)NS(C)(=O)=O [Example 233, 2-(N-benzyl-2-cyano-anilino)-5-methyl-N-methylsulfonyl-thiazole-4-carboxamide] | > 2000
34 | Cc1sc(N(Cc2ccccc2)c2cccc(C#N)c2)nc1C(=O)NS(C)(=O)=O [Example 225, 2-(N-benzyl-3-cyano-anilino)-5-methyl-N-methylsulfonyl-thiazole-4-carboxamide] | > 2000
